{"source": "PubChem BioAssay AID2060489", "about": "(Molecular Pharmacology Branch, DTP, NCI, 2025)", "tested_on": "922993-354-T-J3-PDC complex spheroids, viability", "test": "Anticancer human tumor 922993-354-T-J3-PDC patient-derived endometrial carcinoma cell line growth inhibition [GQUAD]", "conditions": "for IC50: curve of first compound; for viability, T/C: stronger effect = lower value", "procedure,_shortened": "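Tumor cells were grown as complex spheroids with HUVEC endothelial cells and mesenchymal stem cells as stroma. G-quadruplex stabilizers were combined with targeted agents over half-log dilutions from near the clinical Cmax, or from 10 microM.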", "key": {"[1]": {"conditions": "second compound 0.0316 µM, first compound 0.0316 µM"}, "[2]": {"conditions": "second compound 0.0316 µM, first compound 0.1 µM"}, "[3]": {"conditions": "second compound 0.0316 µM, first compound 0.316 µM"}, "[4]": {"conditions": "second compound 0.0316 µM, first compound 1 µM"}, "[5]": {"conditions": "second compound 0.0316 µM, first compound 3.16 µM"}, "[6]": {"conditions": "second compound 0.0316 µM, first compound 10 µM"}, "[7]": {"conditions": "second compound 0.1 µM, first compound 0.0316 µM"}, "[8]": {"conditions": "second compound 0.1 µM, first compound 0.1 µM"}, "[9]": {"conditions": "second compound 0.1 µM, first compound 0.316 µM"}, "[10]": {"conditions": "second compound 0.1 µM, first compound 1 µM"}, "[11]": {"conditions": "second compound 0.1 µM, first compound 3.16 µM"}, "[12]": {"conditions": "second compound 0.1 µM, first compound 10 µM"}, "[13]": {"conditions": "second compound 0.316 µM, first compound 0.0316 µM"}, "[14]": {"conditions": "second compound 0.316 µM, first compound 0.1 µM"}, "[15]": {"conditions": "second compound 0.316 µM, first compound 0.316 µM"}, "[16]": {"conditions": "second compound 0.316 µM, first compound 1 µM"}, "[17]": {"conditions": "second compound 0.316 µM, first compound 3.16 µM"}, "[18]": {"conditions": "second compound 0.316 µM, first compound 10 µM"}, "[19]": {"conditions": "second compound 1 µM, first compound 0.0316 µM"}, "[20]": {"conditions": "second compound 1 µM, first compound 0.1 µM"}, "[21]": {"conditions": "second compound 1 µM, first compound 0.316 µM"}, "[22]": {"conditions": "second compound 1 µM, first compound 1 µM"}, "[23]": {"conditions": "second compound 1 µM, first compound 3.16 µM"}, "[24]": {"conditions": "second compound 1 µM, first compound 10 µM"}, "[25]": {"conditions": "second compound 3.16 µM, first compound 0.0316 µM"}, "[26]": {"conditions": "second compound 3.16 µM, first compound 0.1 µM"}, "[27]": {"conditions": "second compound 3.16 µM, first compound 0.316 µM"}, "[28]": {"conditions": "second compound 3.16 µM, first compound 1 µM"}, "[29]": {"conditions": "second compound 3.16 µM, first compound 3.16 µM"}, "[30]": {"conditions": "second compound 3.16 µM, first compound 10 µM"}, "[31]": {"conditions": "second compound 10 µM, first compound 0.0316 µM"}, "[32]": {"conditions": "second compound 10 µM, first compound 0.1 µM"}, "[33]": {"conditions": "second compound 10 µM, first compound 0.316 µM"}, "[34]": {"conditions": "second compound 10 µM, first compound 1 µM"}, "[35]": {"conditions": "second compound 10 µM, first compound 3.16 µM"}, "[36]": {"conditions": "second compound 10 µM, first compound 10 µM"}}}
{"compound": "CC1COCCN1c1cc(C2(S(C)(=N)=O)CC2)nc(-c2ccnc3[nH]ccc23)n1", "note": "(centres undefined) + CN(C)c1ccc(Nc2c3ccc(NC(=O)CCN4CCCC4)cc3nc3cc(NC(=O)CCN4CCCC4)ccc23)cc1;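 note: spheroids exposed to compounds for seven days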;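 for viability, T/C: 100% = DMSO vehicle control viability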", "values": [{"measurement": "IC50", "setting": "second compound 0.0316 µM", "value": "> 10", "unit": "µM"}, {"measurement": "IC50", "setting": "second compound 0.1 µM", "value": "> 10", "unit": "µM"}, {"measurement": "IC50", "setting": "second compound 0.316 µM", "value": "> 10", "unit": "µM"}, {"measurement": "IC50", "setting": "second compound 1 µM", "value": "> 10", "unit": "µM"}, {"measurement": "IC50", "setting": "second compound 3.16 µM", "value": "> 10", "unit": "µM"}, {"measurement": "IC50", "setting": "second compound 10 µM", "value": "> 10", "unit": "µM"}, {"measurement": "viability, T/C", "setting": "[1]", "value": 110, "unit": "%"}, {"measurement": "viability, T/C", "setting": "[2]", "value": 124, "unit": "%"}, {"measurement": "viability, T/C", "setting": "[3]", "value": 127, "unit": "%"}, {"measurement": "viability, T/C", "setting": "[4]", "value": 87.1, "unit": "%"}, {"measurement": "viability, T/C", "setting": "[5]", "value": 117, "unit": "%"}, {"measurement": "viability, T/C", "setting": "[6]", "value": 70.4, "unit": "%"}, {"measurement": "viability, T/C", "setting": "[7]", "value": 119, "unit": "%"}, {"measurement": "viability, T/C", "setting": "[8]", "value": 121, "unit": "%"}, {"measurement": "viability, T/C", "setting": "[9]", "value": 96.4, "unit": "%"}, {"measurement": "viability, T/C", "setting": "[10]", "value": 85.2, "unit": "%"}, {"measurement": "viability, T/C", "setting": "[11]", "value": 92.1, "unit": "%"}, {"measurement": "viability, T/C", "setting": "[12]", "value": 68.4, "unit": "%"}, {"measurement": "viability, T/C", "setting": "[13]", "value": 102, "unit": "%"}, {"measurement": "viability, T/C", "setting": "[14]", "value": 102, "unit": "%"}, {"measurement": "viability, T/C", "setting": "[15]", "value": 89, "unit": "%"}, {"measurement": "viability, T/C", "setting": "[16]", "value": 111, "unit": "%"}, {"measurement": "viability, T/C", "setting": "[17]", "value": 89.5, "unit": "%"}, {"measurement": "viability, T/C", "setting": "[18]", "value": 64.6, "unit": "%"}, {"measurement": "viability, T/C", "setting": "[19]", "value": 114, "unit": "%"}, {"measurement": "viability, T/C", "setting": "[20]", "value": 116, "unit": "%"}, {"measurement": "viability, T/C", "setting": "[21]", "value": 99.9, "unit": "%"}, {"measurement": "viability, T/C", "setting": "[22]", "value": 96.5, "unit": "%"}, {"measurement": "viability, T/C", "setting": "[23]", "value": 121, "unit": "%"}, {"measurement": "viability, T/C", "setting": "[24]", "value": 76.2, "unit": "%"}, {"measurement": "viability, T/C", "setting": "[25]", "value": 102, "unit": "%"}, {"measurement": "viability, T/C", "setting": "[26]", "value": 128, "unit": "%"}, {"measurement": "viability, T/C", "setting": "[27]", "value": 105, "unit": "%"}, {"measurement": "viability, T/C", "setting": "[28]", "value": 115, "unit": "%"}, {"measurement": "viability, T/C", "setting": "[29]", "value": 108, "unit": "%"}, {"measurement": "viability, T/C", "setting": "[30]", "value": 79.3, "unit": "%"}, {"measurement": "viability, T/C", "setting": "[31]", "value": 121, "unit": "%"}, {"measurement": "viability, T/C", "setting": "[32]", "value": 140, "unit": "%"}, {"measurement": "viability, T/C", "setting": "[33]", "value": 130, "unit": "%"}, {"measurement": "viability, T/C", "setting": "[34]", "value": 114, "unit": "%"}, {"measurement": "viability, T/C", "setting": "[35]", "value": 109, "unit": "%"}, {"measurement": "viability, T/C", "setting": "[36]", "value": 93.4, "unit": "%"}]}
{"compound": "COc1ccc([C@@H](O)c2cc(-c3ncnc4cc(N5CCOCC5)ccc34)c(F)cc2Cl)nn1", "note": "+ CN(C)c1ccc(Nc2c3ccc(NC(=O)CCN4CCCC4)cc3nc3cc(NC(=O)CCN4CCCC4)ccc23)cc1", "values": [{"measurement": "IC50", "setting": "second compound 0.0316 µM", "value": "> 10", "unit": "µM"}, {"measurement": "IC50", "setting": "second compound 0.1 µM", "value": "> 10", "unit": "µM"}, {"measurement": "IC50", "setting": "second compound 0.316 µM", "value": "> 10", "unit": "µM"}, {"measurement": "IC50", "setting": "second compound 1 µM", "value": "> 10", "unit": "µM"}, {"measurement": "IC50", "setting": "second compound 3.16 µM", "value": "> 10", "unit": "µM"}, {"measurement": "IC50", "setting": "second compound 10 µM", "value": "> 10", "unit": "µM"}, {"measurement": "viability, T/C", "setting": "[1]", "value": 101, "unit": "%"}, {"measurement": "viability, T/C", "setting": "[2]", "value": 111, "unit": "%"}, {"measurement": "viability, T/C", "setting": "[3]", "value": 103, "unit": "%"}, {"measurement": "viability, T/C", "setting": "[4]", "value": 111, "unit": "%"}, {"measurement": "viability, T/C", "setting": "[5]", "value": 104, "unit": "%"}, {"measurement": "viability, T/C", "setting": "[6]", "value": 82.3, "unit": "%"}, {"measurement": "viability, T/C", "setting": "[7]", "value": 105, "unit": "%"}, {"measurement": "viability, T/C", "setting": "[8]", "value": 99.5, "unit": "%"}, {"measurement": "viability, T/C", "setting": "[9]", "value": 89.7, "unit": "%"}, {"measurement": "viability, T/C", "setting": "[10]", "value": 88.2, "unit": "%"}, {"measurement": "viability, T/C", "setting": "[11]", "value": 84.8, "unit": "%"}, {"measurement": "viability, T/C", "setting": "[12]", "value": 71.8, "unit": "%"}, {"measurement": "viability, T/C", "setting": "[13]", "value": 76.6, "unit": "%"}, {"measurement": "viability, T/C", "setting": "[14]", "value": 103, "unit": "%"}, {"measurement": "viability, T/C", "setting": "[15]", "value": 83.6, "unit": "%"}, {"measurement": "viability, T/C", "setting": "[16]", "value": 79, "unit": "%"}, {"measurement": "viability, T/C", "setting": "[17]", "value": 86.9, "unit": "%"}, {"measurement": "viability, T/C", "setting": "[18]", "value": 71.4, "unit": "%"}, {"measurement": "viability, T/C", "setting": "[19]", "value": 119, "unit": "%"}, {"measurement": "viability, T/C", "setting": "[20]", "value": 106, "unit": "%"}, {"measurement": "viability, T/C", "setting": "[21]", "value": 104, "unit": "%"}, {"measurement": "viability, T/C", "setting": "[22]", "value": 101, "unit": "%"}, {"measurement": "viability, T/C", "setting": "[23]", "value": 88.4, "unit": "%"}, {"measurement": "viability, T/C", "setting": "[24]", "value": 79.2, "unit": "%"}, {"measurement": "viability, T/C", "setting": "[25]", "value": 81.5, "unit": "%"}, {"measurement": "viability, T/C", "setting": "[26]", "value": 101, "unit": "%"}, {"measurement": "viability, T/C", "setting": "[27]", "value": 120, "unit": "%"}, {"measurement": "viability, T/C", "setting": "[28]", "value": 105, "unit": "%"}, {"measurement": "viability, T/C", "setting": "[29]", "value": 97.7, "unit": "%"}, {"measurement": "viability, T/C", "setting": "[30]", "value": 75.1, "unit": "%"}, {"measurement": "viability, T/C", "setting": "[31]", "value": 105, "unit": "%"}, {"measurement": "viability, T/C", "setting": "[32]", "value": 110, "unit": "%"}, {"measurement": "viability, T/C", "setting": "[33]", "value": 134, "unit": "%"}, {"measurement": "viability, T/C", "setting": "[34]", "value": 88.6, "unit": "%"}, {"measurement": "viability, T/C", "setting": "[35]", "value": 109, "unit": "%"}, {"measurement": "viability, T/C", "setting": "[36]", "value": 83.1, "unit": "%"}]}
